Where two headings read alike, the source gives them in different places. Each block holds one compound with its values, some of them ahead of it.
Experiments:
[1] = not given; remark: listed apart in the source
[2] = molecular target: T1, human orexin type 2 receptor (hOX2R) (Homo sapiens, UniProt O43614); assay: Orexin type 2 receptor agonist activity, intracellular Ca2+ (FLIPR TETRA); format: cell-based; conditions: CHO cells expressing hOX2R; Ca2+ fluorescence area; read-out: hOx2 pEC50 (converted)
T1 construct: expressed in transfected cells
T1 sequence (O43614 1-444): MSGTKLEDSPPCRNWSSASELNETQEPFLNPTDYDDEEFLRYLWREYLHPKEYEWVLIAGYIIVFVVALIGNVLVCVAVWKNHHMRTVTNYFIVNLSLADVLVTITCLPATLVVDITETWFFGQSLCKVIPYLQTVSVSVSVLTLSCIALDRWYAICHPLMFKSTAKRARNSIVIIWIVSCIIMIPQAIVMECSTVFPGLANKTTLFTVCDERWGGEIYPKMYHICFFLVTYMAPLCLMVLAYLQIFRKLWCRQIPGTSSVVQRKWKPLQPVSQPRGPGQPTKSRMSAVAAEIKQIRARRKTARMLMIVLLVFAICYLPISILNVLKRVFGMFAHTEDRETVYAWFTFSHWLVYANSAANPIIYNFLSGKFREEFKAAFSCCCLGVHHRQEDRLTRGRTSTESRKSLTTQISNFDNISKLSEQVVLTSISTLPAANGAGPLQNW
Description: Stable cell line generation. Obtainment of cells stably expressing either human orexin type 2 or human orexin type 1 receptor; to obtain a stable cell line the Orexin receptor cDNA was inserted into pcDNA3.1(+) plasmid vector and clones identified by G418 drug resistance selection. […] A single clone for OX2R-CHO and OX1R-CHO were grown in bulk and frozen to generate a cell bank for routine screening.
Measurement of orexin type 2 receptor agonist activity. Chinese hamster ovary (CHO) cells expressing human orexin type 2 receptor (hOX2R) or human orexin type 1 receptor (hOX1R) were seeded in each well of 384 well black clear bottom plates (BD Flacon) at 10,000 cells per well and cultured for 24 hr in an Ham's F12 (Gibco) medium containing 10% fetal calf serum (Sigma Aldrich) under the conditions of 37° C., 5% CO2. After removal of the medium, 50 μl of assay buffer 1 (0.1% bovine serum albumin (Sigma Aldrich), 20 mM HEPES (Molecular Dimensions), […] probenecid (Sigma Aldrich), 1× Calcium 5 dye (Molecular Devices) in Hank's balanced salt solution (Invitrogen)) was added, and the cells were incubated for 60 min under the conditions of 37° C., 5% CO2. A test compound was dissolved in dimethyl sulfoxide (Sigma Aldrich) to 10 mM, and then diluted with assay buffer 2 (20 mM HEPES, Hank's balanced salt solution, 0.1% bovine serum albumin). For the reaction, a test compound solution (10 μl) was added using Fluorescent Imaging Plate Reader TETRA (FLIPR TETRA: manufactured by Molecular Devices), a fluorescence value (excitation wavelength 488 nm, measurement wavelength 570 nm) of each well was measured every one second for 2 min, and the agonist activity was determined using the area of the fluorescence value as an indicator of intracellular Ca^2+ concentration. The agonist activity of the test compound was calculated assuming that the fluorescence value of the well added with only the dilution buffer was 0% and the fluorescence value of the well added with 10 nM human orexin A (Tocris) buffer was 100%. As used herein, Emax indicates the value at 10 μM concentration when orexin A is converted to a full agonist (maximum value of agonist activity: 100%).

[3] = tested on: mouse models of narcolepsy type 1 / WT mice; conditions: cited from earlier work
[4] = tested on: individuals with NT1; conditions: initial clinical studies; cited from earlier work
[5] = amide bond, 13-membered ring, HATU/DIEA, DMF, 10.0 mM, 25.0 °C

Compound: CN(C)S(=O)(=O)NC1CCCN2C(=O)CCOc3ccccc3-c3cccc(c3)CC12 (stereo not drawn)
ring closure, yield after HPLC (from CN(C)S(=O)(=O)NC1CCCNC1Cc1cccc(-c2ccccc2OCCC(=O)O)c1, amide bond, 12-membered ring, HATU/DIEA, DMF, 0.4 mM, 20.0 °C, 12.0 h): 29.9%

Compound: O=C1CCCN2C(=O)CCOc3cccc(F)c3-c3cccc(c3)CC12 (stereo not drawn)
ring closure, isolated yield ([1]; from O=C(O)CCOc1cccc(F)c1-c1cccc(CC2NCCCC2=O)c1, amide bond, 12-membered ring, HATU/DIEA, DMF, 0.49 mM, 25.0 °C, 12.0 h): 27.7%

Compound: O=C1CCCN2C(=O)CCOc3ccccc3-c3cc(ccc3F)CC12 (stereo not drawn)
ring closure, isolated yield ([1]; from O=C(O)CCOc1ccccc1-c1cc(CC2NCCCC2=O)ccc1F, amide bond, 12-membered ring, HATU/DIEA, DMF, 0.54 mM, 25.0 °C, 12.0 h): 28.4%

EC50 [2]: 0.001 to 0.01 µM
Compound: O=C1CCOc2ccc(F)cc2-c2cccc(c2)C[C@H]2[C@@H](NS(=O)(=O)CF)CCCN12 [Compound A1-91, 1-fluoro-N-((4^2S,4^3S)-15-fluoro-5-oxo-8-oxa-4(2,1)-piperidina-1(1,2),2(1,3)-dibenzenacyclooctaphane-4^3-yl)methanesulfonamide]

EC50 [2]: 0.001 to 0.01 µM
Compound: CN1CCOc2ccccc2-c2cccc(c2F)C[C@H]2[C@@H](NS(=O)(=O)CF)[C@@H](F)CN2C1=O [Compound A1-92, N-((4^2S,4^3R,4^4S)-2^2,4^4-difluoro-6-methyl-5-oxo-9-oxa-6-aza-4(2,1)-pyrrolidina-1(1,2),2(1,3)-dibenzenacyclononaphane-4^3-yl)-1-fluoromethanesulfonamide]

EC50 [2]: 0.001 to 0.01 µM
Compound: CN1CCOc2ccccc2-c2cccc(c2)C[C@H]2[C@@H](NS(=O)(=O)C(F)F)C3(CC3)CN2C1=O [Compound A1-95, 1,1-difluoro-N-((2′S,3′S)-6′-methyl-5′-oxospiro[cyclopropane-1,4′-9-oxa-6-aza-4(2,1)-pyrrolidina-1(1,2),2(1,3)-dibenzenacyclononaphan]-3′-yl)methanesulfonamide]

EC50 [2]: 0.01 to 0.1 µM
Compound: O=C1CCOc2ccccc2-c2cccc(c2F)C[C@H]2[C@@H](NS(=O)(=O)C(F)F)[C@@H](F)CN12 [Compound A1-96]

EC50 [2]: 0.01 to 0.1 µM
Compound: O=C1CCOc2ccccc2-c2cc(F)cc(c2F)C[C@H]2[C@@H](NS(=O)(=O)CF)CCCN12 [Compound A1-97]

EC50 [2]: 0.0001 to 0.001 µM
Compound: O=C1CCOc2ccccc2-c2cccc(c2F)C[C@H]2[C@@H](NS(=O)(=O)C(F)F)CCCN12 [Compound A1-98]

EC50 [2]: 0.01 to 0.1 µM
Compound: O=C1CCOc2ccccc2-c2cccc(c2)C[C@H]2[C@@H](NS(=O)(=O)CF)C3(CC3)CN12 [Compound A1-99]

EC50 [2]: 0.001 to 0.01 µM
Compound: CCS(=O)(=O)N[C@H]1CCCN2C(=O)CCOc3ccccc3-c3cccc(c3F)C[C@@H]12 [Compound A1-100]

EC50 [2]: 0.01 to 0.1 µM
Compound: O=C1CCOc2ccccc2-c2cccc(c2F)C[C@H]2[C@@H](NS(=O)(=O)CF)CCCN12 [Compound A1-102]

Compound: COC(=O)N1CCC[C@H](NS(C)(=O)=O)[C@@H]1CO[C@H]1CC[C@@H](c2ccccc2)CC1 [TAK-925]
wakefulness ([3]; subcutaneous administration, OX2R-knockout mice): not
wakefulness ([3]; subcutaneous administration, WT mice): modestly increased wakefulness
cataplexy [4]: trends for decreasing cataplexy
wakefulness [4]: substantial levels of increased wakefulness

Compound: COc1ccc(-c2cccc(C(=O)N(C)C)c2)cc1S(=O)(=O)Nc1cccc(NCCNC(=O)c2ccccc2N(C)C)c1 [YNT-185]
sleep-onset REM periods and cataplexy-like events ([3]; intraperitoneally or ICV, NT1 mouse model): decrease sleep-onset REM periods and cataplexy-like events
wakefulness ([3]; intraperitoneally or ICV, wild type (WT) and orexin ligand-deficient mice): modestly increases wakefulness

Compound: N-(1^3,1^5-difluoro-5-oxo-4(2,1)-pyrrolidina-1(1,2),2(1,3)-dibenzenacyclo-undecaphane-4^3-yl)ethanesulfonamide_cis racemic
ring closure, yield after HPLC (amide bond, 15-membered ring, HATU/DIEA, DCM, 11.7 mM, 25.0 °C): 8%

Compound: N-(1^3,1^5-difluoro-5-oxo-6-aza-4(2,1)-pyrrolidina-1-(1,2),2-(1,3)-dibenzena-cycloundecaphane-4^3-yl)ethanesulfonamide_cis racemic
ring closure, yield after HPLC (crosslinker bond, 15-membered ring, CDI/DIEA, DMF, 52.5 mM, 25.0 °C): 11%

Compound: N-(5-oxo-4(2,1)-piperidina-1(1,2),2(1,3)-dibenzenacyclononaphane-4^3-yl)-methanesulfonamide_cis racemic
ring closure, isolated yield ([1]; amide bond, 13-membered ring, HATU/DIEA, DMF, 9.9 mM, 25.0 °C): 27%

Compound: N-(5-oxo-4(2,1)-piperidina-1(1,2),2(1,3)-dibenzenacycloundecaphane-4^3-yl)methanesulfonamide_cis racemic
ring closure, isolated yield ([1]; amide bond, 15-membered ring, HATU/DIEA, DMF, 8.9 mM, 25.0 °C): 67%

Compound: N-(5-oxo-6,9-dioxa-4(2,1)-pyrrolidina-1(1,2),2(1.3)-dibenzenacyclo-nonaphane-4^3-yl)ethanesulfonamide_cis racemic
ring closure, yield after HPLC (crosslinker bond, 13-membered ring, CDI/DIEA, DMF, 10.0 mM, 80.0 °C): 22%

Compound: N-(5-oxo-6-aza-4(2,1)-piperidina-1(1,2),2(1.3)-dibenzenacyclo-undecaphane-4^3-yl)methanesulfonamide_cis racemic
ring closure, isolated yield ([1]; crosslinker bond, 15-membered ring, CDI/DIEA, DMF, 10.0 mM, 70.0 °C): 23%

Compound: N-(5-oxo-9-oxa-4(2,1)-piperidina-1(1,2),2(1,3)-dibenzenacyclononaphane-4^3-yl)methanesulfonamide_cis racemic
ring closure, isolated yield [1, 5]: 38%

Compound: N-(5-oxo-9-oxa-4(2,1)-pyrrolidina-1(1.2),2(1,3)-dibenzenacyclo-nonaphane-4^3-yl)ethanesulfonamide_cis racemic
ring closure, isolated yield [1, 5]: 49%

Compound: N-(5-oxo-9-oxa-6-aza-4(2,1)-piperidina-1(1,2),2(1,3)-dibenzenacyclo-nonaphane-4^3-yl)methanesulfonamide_cis racemic
ring closure, isolated yield ([1]; crosslinker bond, 13-membered ring, CDI/DIEA, DMF, 97.5 mM, 70.0 °C): 23%

Compound: N-(5-oxo-12-oxa-6-aza-4(2,1)-pyrrolidina-1(1,2),2(1,3)-dibenzenacyclo-dodeca phane-43-yl)ethanesulfonamide_cis racemic
ring closure, isolated yield ([1]; crosslinker bond, 16-membered ring, CDI/DIEA, THF/DMF 4:1, 10.0 mM, 70.0 °C): 38%

Compound: N-(5-oxo-12-phenyl-2,3,5,6,7,8,9,10,16,16a-decahydro-1H-benzo[b]pyrrolo[2,1-e][1]oxa[6]azacyclododecin-1-yl)ethanesulfonamide_cis racemic
ring closure, yield after HPLC (ether bond, 12-membered ring, K2CO3, DMF, 10.7 mM, 80.0 °C): 10%

Compound: N-(6-methyl-5-oxo-9-oxa-6-aza-4(2,1)-piperidina-1(1,2),2(1,3)-dibenzena-cyclo-nonaphane-4^3-yl)methanesulfonamide_cis racemic
ring closure, yield after HPLC (crosslinker bond, 13-membered ring, triphosgene/DIEA, DCM, 8.5 mM, 25.0 °C): 3%

Compound: N-((4^2,4^3S)-5-oxo-8-oxa-4(2,1)-piperidina-1(1,2),2(1.3)-dibenzenacyclo-octaphane-4^3-yl)ethanesulfonamide
ring closure, yield after HPLC (amide bond, 12-membered ring, HATU/DIEA, DMF, 2.24 mM, 25.0 °C): 29.4%

Compound: N-((4^2S,4^3S)-5-oxo-4(2,1)-piperidina-1(1,2),2(1,3)-dibenzenacyclooctaphane-4^3-yl)methanesulfonamide
ring closure, isolated yield ([1]; amide bond, 12-membered ring, HATU/DIEA, DMF, 6.5 mM): 6%

Compound: N-((4^2S,4^3S)-5-oxo-8-oxa-4(2,1)-piperidina-1(1,2),2(1,3)-dibenzenacyclo-octaphane-4^3-yl)methanesulfonamide
ring closure, yield after HPLC (amide bond, 12-membered ring, HATU/DIEA, DMF, 2.31 mM, 25.0 °C): 23.4%

Reference: patent publication US20230331720A1, “MEDIUM- OR MACRO-CYCLIC BENZYL-SUBSTITUTED HETEROCYCLE DERIVATIVES AND THEIR USES AS OREXIN-2 RECEPTOR AGONISTS” (Orexia Therapeutics Limited, priority 2020, published 2023)
